Measurements from patent US6737383B1, “Herbicidal oxadiazolidines” (priority 1999, dated 2004).

What was measured:
wheat = assay: Test B pre/postemergence wheat; format: in vivo, Triticum aestivum
Summary of the method: (§1)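 Herbicidal effect was estimated by eye on a ten-point control scale after plants spent twelve to sixteen days in a greenhouse following soil or foliar treatment. Foliar sprays targeted plants at one to four leaves; all doses were formulated in a non-phytotoxic solvent with surfactant.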

rape = assay: Test B pre/postemergence rape; format: in vivo, Brassica napus
Summary of the method: as §1

blackgrass = assay: Test B pre/postemergence blackgrass; format: in vivo, Alopecurus myosuroides
Summary of the method: as §1

bedstraw = assay: Test B pre/postemergence bedstraw; format: in vivo, Galium aparine
Summary of the method: as §1

cocklebur = assay: Test B pre/postemergence cocklebur; format: in vivo, Xanthium strumarium
Summary of the method: as §1

corn = assay: Test B pre/postemergence corn; format: in vivo, Zea mays
Summary of the method: as §1

sugar beet = assay: Test B pre/postemergence sugar beet; format: in vivo, Beta vulgaris
Summary of the method: as §1

duck salad = assay: Test B flood test duck salad; format: in vivo, Heteranthera limosa
Summary of the method: (§2)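 Flood test on plants grown to the 2-leaf stage; treated plants kept in greenhouse twelve to sixteen days, then visually rated against controls on a 0 (no effect) to 10 (complete control) scale.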

wild oat = assay: Test B pre/postemergence wild oat; format: in vivo, Avena fatua
Summary of the method: as §1

surinam grass = assay: Test B pre/postemergence surinam grass; format: in vivo, Brachiaria decumbens
Summary of the method: as §1

velvetleaf = assay: Test B pre/postemergence velvetleaf; format: in vivo, Abutilon theophrasti
Summary of the method: as §1

bamyardgrass = assay: Test B flood test barnyardgrass; format: in vivo, Echinochloa crus-galli
Summary of the method: as §2

smallflower flatsedge = assay: Test B flood test smallflower flatsedge; format: in vivo, Cyperus difformis
Summary of the method: as §2

morningglory = assay: Test B pre/postemergence morningglory; format: in vivo, Ipomoea hederacea
Summary of the method: as §1

purple nutsedge = assay: Test B pre/postemergence purple nutsedge; format: in vivo, Cyperus rotundus; conditions: Postemergence
Summary of the method: as §1

crabgrass = assay: Test B pre/postemergence crabgrass; format: in vivo, Digitaria sanguinalis
Summary of the method: as §1

giant foxtail = assay: Test B pre/postemergence giant foxtail; format: in vivo, Setaria faberii
Summary of the method: as §1

rice = assay: Test B flood test rice; format: in vivo, Oryza sativa
Summary of the method: as §2

soybean = assay: Test B pre/postemergence soybean; format: in vivo, Glycine max
Summary of the method: as §1

pigweed = assay: Test B pre/postemergence pigweed; format: in vivo, Amaranthus retroflexus
Summary of the method: as §1

[1] = Preemergence, Rate 62 g/ha, scale of 0 to 10 where 0 is no effect and 10 is complete control
[2] = Preemergence, Rate 250 g/ha, scale of 0 to 10 where 0 is no effect and 10 is complete control
[3] = Preemergence, Rate 500 g/ha, scale of 0 to 10 where 0 is no effect and 10 is complete control
[4] = Rate 125 g/ha, Preemergence, scale of 0 to 10 where 0 is no effect and 10 is complete control
[5] = Rate 500 g/ha, Postemergence, scale 0 to 10, 0 no effect, 10 complete control
[6] = Rate 62 g/ha, Postemergence, scale of 0 to 10 where 0 is no effect and 10 is complete control
[7] = Rate 125 g/ha, Postemergence, scale 0 to 10
[8] = Rate 62 g/ha, headed Pre-emergence (flood test species), scale 0 to 10 (0 no effect, 10 complete control)
[9] = Rate 125 g/ha, Pre-emergence, flood test species, scale 0 to 10 where 0 is no effect and 10 is complete control
[10] = Rate 250 g/ha, Pre-emergence, flood-test species, scale 0 to 10, 0 is no effect, 10 is complete control
[11] = Rate 500 g/ha, Pre-emergence, flood test species, scale 0 to 10 (0 no effect, 10 complete control)

CC(C)N(C(=O)n1oc(=O)n(CCC2OCCCO2)c1=O)c1ccc(F)cc1 [Compound 255]
Wheat plant response rating (wheat; [1]): 0 | Wheat plant response rating (wheat; [2]): 4 | Plant response rating, Wheat (wheat; [3]): 8 | Wheat plant response rating (wheat; [4]): 0 | Wheat plant response rating (wheat; [5]): 8 | Rape plant response rating (rape; [1]): 0 | Rape plant response rating (rape; [2]): 0 | Plant response rating, Rape (rape; [3]): 5 | Rape plant response rating (rape; [4]): 0 | Plant response rating (0 to 10; 0 is no effect, 10 is complete control), Rape (rape; Rate 250 g/ha, Postemergence): 3 | Rape plant response rating (rape; [5]): 3 | Blackgrass plant response rating (blackgrass; [1]): 10 | Blackgrass plant response rating (blackgrass; [2]): 10 | Plant response rating, Blackgrass (blackgrass; [3]): 10 | Blackgrass plant response rating (blackgrass; [6]): 0 | Blackgrass plant response rating (blackgrass; [7]): 2 | Blackgrass plant response rating (blackgrass; [4]): 10 | Plant response rating (0 to 10; 0 is no effect, 10 is complete control), Blackgrass (blackgrass; Rate 250 g/ha, Postemergence): 7 | Blackgrass plant response rating (blackgrass; [5]): 9 | Bedstraw plant response rating (bedstraw; [1]): 0 | Bedstraw plant response rating (bedstraw; [2]): 0 | Plant response rating, Bedstraw (bedstraw; [3]): 0 | Bedstraw plant response rating (bedstraw; [6]): 0 | Bedstraw plant response rating (bedstraw; [7]): 0 | Bedstraw plant response rating (bedstraw; [4]): 0 | Plant response rating (0 to 10; 0 is no effect, 10 is complete control), Bedstraw (bedstraw; Rate 250 g/ha, Postemergence): 2 | Bedstraw plant response rating (bedstraw; [5]): 8 | Cocklebur plant response rating (cocklebur; [1]): 0 | Cocklebur plant response rating (cocklebur; [2]): 0 | Plant response rating, Cocklebur (cocklebur; [3]): 0 | Cocklebur plant response rating (cocklebur; [6]): 0 | Cocklebur plant response rating (cocklebur; [7]): 0 | Cocklebur plant response rating (cocklebur; [4]): 0 | Plant response rating (0 to 10; 0 is no effect, 10 is complete control), Cocklebur (cocklebur; Rate 250 g/ha, Postemergence): 0 | Cocklebur plant response rating (cocklebur; [5]): 2 | Corn plant response rating (corn; [1]): 0 | Corn plant response rating (corn; [2]): 0 | Plant response rating, Corn (corn; [3]): 8 | Corn plant response rating (corn; [6]): 0 | Corn plant response rating (corn; [7]): 0 | Corn plant response rating (corn; [4]): 0 | Plant response rating (0 to 10; 0 is no effect, 10 is complete control), Corn (corn; Rate 250 g/ha, Postemergence): 0 | Corn plant response rating (corn; [5]): 6 | Sugarbeets plant response rating (sugar beet; [1]): 0 | Sugarbeets plant response rating (sugar beet; [2]): 6 | Plant response rating, Sugarbeets (sugar beet; [3]): 7 | Sugarbeets plant response rating (sugar beet; [4]): 3 | Sugarbeets plant response rating (sugar beet; [5]): 3 | Ducksalad plant response rating (duck salad; [8]): 0 | Ducksalad plant response rating (duck salad; [9]): 0 | Ducksalad plant response rating (duck salad; [10]): 0 | Ducksalad plant response rating (duck salad; [11]): 0 | Wild oats plant response rating (wild oat; [1]): 0 | Wild oats plant response rating (wild oat; [2]): 5 | Plant response rating, Wild oats (wild oat; [3]): 10 | Wild oats plant response rating (wild oat; [4]): 2 | Wild oats plant response rating (wild oat; [5]): 4 | B. signalgrass plant response rating (surinam grass; [1]): 0 | B. signalgrass plant response rating (surinam grass; [2]): 3 | Plant response rating, B. signalgrass (surinam grass; [3]): 9 | B. signalgrass plant response rating (surinam grass; [6]): 0 | B. signalgrass plant response rating (surinam grass; Rate 125 g/ha, Postemergence, scale 0 (no effect) to 10 (complete control)): 0 | B. signalgrass plant response rating (surinam grass; [4]): 2 | Plant response rating (0 to 10; 0 is no effect, 10 is complete control), B. signalgrass (surinam grass; Rate 250 g/ha, Postemergence): 2 | B. signalgrass plant response rating (surinam grass; [5]): 8 | Velvetleaf plant response rating (velvetleaf; [1]): 0 | Velvetleaf plant response rating (velvetleaf; [2]): 5 | Plant response rating, Velvetleaf (velvetleaf; [3]): 7 | Velvetleaf plant response rating (velvetleaf; [4]): 0 | Velvetleaf plant response rating (velvetleaf; [5]): 1 | Barnyardgrass plant response rating (bamyardgrass; [8]): 0 | Barnyardgrass plant response rating (bamyardgrass; [9]): 0 | Barnyardgrass plant response rating (bamyardgrass; [10]): 0 | Barnyardgrass plant response rating (bamyardgrass; [11]): 0 | S. Flatsedge plant response rating (smallflower flatsedge; [8]): 0 | S. Flatsedge plant response rating (smallflower flatsedge; [9]): 0 | S. Flatsedge plant response rating (smallflower flatsedge; [10]): 0 | S. Flatsedge plant response rating (smallflower flatsedge; [11]): 0 | Morningglory plant response rating (morningglory; [1]): 0 | Morningglory plant response rating (morningglory; [2]): 0 | Plant response rating, Morningglory (morningglory; [3]): 0 | Morningglory plant response rating (morningglory; [4]): 0 | Plant response rating (0 to 10; 0 is no effect, 10 is complete control), Morningglory (morningglory; Rate 250 g/ha, Postemergence): 8 | Morningglory plant response rating (morningglory; [5]): 8 | Plant response rating (0 to 10; 0 is no effect, 10 is complete control), Nutsedge (purple nutsedge; Rate 250 g/ha): 0 | Nutsedge plant response rating (purple nutsedge; Rate 500 g/ha, scale 0 to 10, 0 no effect, 10 complete control): 6 | Crabgrass plant response rating (crabgrass; [1]): 0 | Crabgrass plant response rating (crabgrass; [2]): 7 | Plant response rating, Crabgrass (crabgrass; [3]): 9 | Crabgrass plant response rating (crabgrass; [4]): 3 | Plant response rating (0 to 10; 0 is no effect, 10 is complete control), Crabgrass (crabgrass; Rate 250 g/ha, Postemergence): 2 | Crabgrass plant response rating (crabgrass; [5]): 3 | Giant foxtail plant response rating (giant foxtail; [1]): 8 | Giant foxtail plant response rating (giant foxtail; [2]): 10 | Plant response rating, Giant foxtail (giant foxtail; [3]): 10 | Giant foxtail plant response rating (giant foxtail; [4]): 9 | Plant response rating (0 to 10; 0 is no effect, 10 is complete control), Giant foxtail (giant foxtail; Rate 250 g/ha, Postemergence): 6 | Giant foxtail plant response rating (giant foxtail; [5]): 8 | Rice plant response rating (rice; [8]): 0 | Rice plant response rating (rice; [9]): 0 | Rice plant response rating (rice; [10]): 0 | Rice plant response rating (rice; [11]): 0 | Soybean plant response rating (soybean; [1]): 0 | Soybean plant response rating (soybean; [2]): 0 | Plant response rating, Soybean (soybean; [3]): 0 | Soybean plant response rating (soybean; [4]): 0 | Soybean plant response rating (soybean; [5]): 6 | Redroot pigweed plant response rating (pigweed; [1]): 0 | Redroot pigweed plant response rating (pigweed; [2]): 5 | Plant response rating, Redroot pigweed (pigweed; [3]): 10 | Redroot pigweed plant response rating (pigweed; [4]): 2 | Plant response rating (0 to 10; 0 is no effect, 10 is complete control), Redroot pigweed (pigweed; Rate 250 g/ha, Postemergence): 2 | Redroot pigweed plant response rating (pigweed; [5]): 8
